“And” between values parts separate entries of the source, which are not always exact repeats. Equal entries are not always repeated. The source made the active and inactive calls. No rule for the calls is given here.
Biological target: glucose-6-phosphate dehydrogenase-6-phosphogluconolactonase (Plasmodium falciparum 3D7)
Assay: PfG6PD inhibitor potency, dose response, biochemical, fluorescence intensity (AID 504765)
Conditions: Recombinant PfG6PD enzyme, fluorescence intensity (NADPH)

Row | Structure (SMILES) | IC50
1 | COC(=O)CCC(=O)OC1(C)C(=O)C2=CN(C3CC3)C(c3ccc(OC)cc3)=CC2=C(Br)C1=O (stereo not drawn) | 2.46 µM
2 | Cc1ccc(SC2=C(Sc3ccc(C)cc3)C(=O)c3ccccc3C2=O)cc1 | 11 µM
3 | Oc1ccc(NCc2ccccc2OCc2ccccc2)cc1 | inactive
4 | COc1cc(NCc2ccccc2)c2ncn(C(C)C)c2c1 | inactive
5 | C=CCSc1nc2sc3c(c2c(=O)n1CC)CCc1ccccc1-3 | inactive
6 | O=C(Nc1nnc(S(=O)(=O)N2CCCCCC2)s1)c1cccc(Br)c1 | 15.1 µM
7 | O=[N+]([O-])c1c(NCCO)cc(Sc2nc3ccccc3s2)c2nonc12 | 10.2 µM
8 | Cc1ccc(C(=O)/C=C/C(=O)c2ccc(C)cc2)cc1 | 7.28 µM
9 | c1ccc(OCc2nnc3n2N=C(c2ccccc2)CS3)cc1 | 17.1 µM
10 | Cc1ccc(/C=C/C(=O)Nc2ccc([N+](=O)[O-])c(NC(=O)/C=C/c3ccc(C)o3)c2)o1 | 4.84 µM
11 | COc1cc(CNc2ccc(N3CCCC3)cc2)cc(Cl)c1OC | 3.64 µM
12 | Cc1cc(C(=O)O)ccc1-n1c(C)cc(C=C2C(=O)c3ccccc3C2=O)c1C | 7.14 µM
13 | CC1CCc2c(nc3sc4c(c3c2N)CCCC4)C1 (stereo not drawn) | 14.9 µM
14 | Cc1nnc(Sc2cc(NCCO)c([N+](=O)[O-])c3nonc23)s1 | 5.56 µM
15 | Cc1cc(C)c2sc(NC(=O)C3=COCCO3)nc2c1 | 11 µM
16 | CN1/C(=C\C(=O)c2cccs2)Sc2ccccc21 | 7.44 µM
17 | Cc1[nH]c2ccccc2c1/C=N/Nc1nncn1N | 5.61 µM
18 | Cn1c(=O)[nH]c(=O)c2c1nc(SCCN1CCCCC1)n2CCCc1ccccc1 | 14.2 µM
19 | Cc1ccc(-c2c(C(=O)N/N=C/c3ccc(C)o3)nnn2-c2nonc2N)cc1 | 1.43 µM
20 | CCOc1ccccc1NS(=O)(=O)c1c(C)noc1C | 9.95 µM
21 | O=S(=O)(Nc1ccccc1F)c1cccc(NC(=S)NCCN2CCOCC2)c1 | 7.87 µM

Row | Structure (SMILES) | IC50
22 | C[C@H](NC(=O)c1cc2c(cn1)[nH]c1ccccc12)C(=O)O | inactive
23 | [O-]/[N+](=C/c1cccnc1)c1ccc(Br)cc1 | 1.11 µM
24 | N#Cc1ccc2c(=O)n(-c3ccccc3)sc2c1 | 3.86 µM
25 | COc1cc(N)c2ncccc2c1SC | inactive
26 | Cc1ccc(S(=O)(=O)Nc2nc(C)c(C(=O)N/N=C/c3ccccc3)s2)cc1 | 4.58 µM
27 | Cc1ccc(-n2c(N)c(C(=O)N3CCN(C)CC3)sc2=S)cc1 | 16 µM
28 | O=[N+]([O-])c1ccc(N/N=C/c2ccc(O)c(O)c2O)c(S(=O)(=O)N2CCOCC2)c1 | 8.74 µM
29 | COC(=O)c1ccccc1NC1=C/C(=N\S(=O)(=O)c2cccs2)c2ccccc2C1=O | 1.26 µM and 6.47 µM
30 | CC(=O)Nc1ccc(S(=O)(=O)NNc2cccc(C)c2)cc1 | inactive
31 | O=C1C=CC2=C3c4cc(O)c(O)cc4CC3(O)COC2=C1O (stereo not drawn) | 6.49 µM
32 | CCC(C)(C)c1nnc(NC(=O)C2CCN(C(=O)c3ccco3)CC2)s1 | inactive
33 | O=[N+]([O-])c1ccc2c(c1)-c1ccccc1C2O (stereo not drawn) | 2.46 µM
34 | COc1ccc2ccccc2c1C1CC(=O)N2CN(C3CCCCC3)CSC2=C1C#N (stereo not drawn) | 14.7 µM
35 | COc1ccc(S(=O)(=O)Nc2cc(SCC(=O)O)c(O)c3ccccc23)cc1 | 2.03 µM
36 | CN(C)c1ccc(C=c2c3ccccc3n3c2c2ccccc2[n+]3C)cc1 | 16 µM
37 | COc1cc(N=c2ssnc2Cl)c(OC)cc1Cl | 13.5 µM
38 | COc1cc(N)c2ncsc2c1 | 15.5 µM
39 | CN(C)S(=O)(=O)c1cccc(-n2sc3ccccc3c2=O)c1 | 2.08 µM
40 | Cc1ccccc1OCC(=O)NCC(=O)OCC(=O)c1ccc([N+](=O)[O-])cc1 | 17.2 µM
41 | O=c1c2ccccc2sn1-c1cccc(Cl)c1 | 4.18 µM
42 | O=S(=O)(Nc1c(O)ccc2ccccc12)c1ccccc1 | 4.49 µM

Row | Structure (SMILES) | IC50
43 | CCS(=O)(=O)N1CCN(c2ccc([N+](=O)[O-])c(NC(C)c3ccccc3)c2)CC1 (stereo not drawn) | 14.8 µM
44 | COc1ccc(CCn2c(NN=C3CCCC3)nc3c2c(=O)[nH]c(=O)n3C)cc1 | 9.56 µM
45 | Cc1ccc(C(=O)Nc2nnc(S(=O)(=O)N3CCC(C)CC3)s2)cc1 | inactive
46 | O=c1c2ccccc2sn1-c1ccccc1F | 6.48 µM
47 | C[n+]1c(-c2ccccc2)cc2c(=Cc3ccc([N+](=O)[O-])cc3)c3ccccc3n21 | inactive
48 | COc1cc(SSc2cc(OC)cc([N+](=O)[O-])c2N)c(N)c([N+](=O)[O-])c1 | 4.2 µM
49 | CC(C)c1cc2c(c(O)c1O)[C@@]13CCCC(C)(C)C1CC2OC3=O (stereo partly drawn) | 4.95 µM
50 | [O-]/[N+](=C\c1ccco1)c1ccc(Cl)cc1 | 1.39 µM
51 | NC1CCc2cc(O)c(O)cc2C1 (stereo not drawn) | inactive
52 | Cc1ccc(Cl)cc1NC1=C/C(=N\S(=O)(=O)c2cccs2)c2ccccc2C1=O | inactive
53 | COc1ccc(CN(C)S(=O)(=O)c2nnc(NC(=O)c3ccc(C)cc3)s2)cc1OC | 7.6 µM
54 | CC1CCc2[nH]c3ccc(C(=O)N(C)CC(=O)Nc4ccccc4C(F)(F)F)cc3c2C1 (stereo not drawn) | 5.61 µM
55 | Cc1cc(C)c2c(=O)n(CC(=O)Nc3cccc(Cl)c3C)sc2n1 | 5.51 µM
56 | CCN(CC)c1nc(N)nc(NS(=O)(=O)c2ccc(Cl)cc2)n1 | 6.15 µM
57 | CCC(c1ccc(O)c(O)c1)C(CC)c1ccc(O)c(O)c1 (stereo not drawn) | inactive
58 | O=c1[nH]c(NCCO)c(N=Cc2ccccc2)c(=O)[nH]1 | 1.03 µM
59 | O=C(O)c1cccc(N2C(=O)C=CC2=O)c1 | 15.5 µM
60 | CC(C)c1nnc(NC(=O)c2cccc(-n3cnnn3)c2)s1 | 5.55 µM
61 | COc1cccc(/C=N/NC(=O)c2c(C)nc3ccc(Br)cn23)c1 | 2.86 µM
62 | Cc1nn(-c2ccccc2)c(Cl)c1/C=N/Nc1nc2ccccc2n1C | 13.3 µM
63 | O=[N+]([O-])c1cccc(SSc2cccc([N+](=O)[O-])c2)c1 | 7.67 µM

Row | Structure (SMILES) | IC50
64 | COC1(OC)C=CC(=O)C=C1NC(=O)c1ccccc1OC(C)=O | 9.27 µM
65 | Cc1nc2c(o1)C(=O)c1ccccc1C2=Nc1ccccc1 | 7 µM
66 | COc1ccc(CCn2c(NN=C3CCCCC3)nc3c2c(=O)[nH]c(=O)n3C)cc1 | 1.65 µM
67 | C#CCCc1cscc1/C=[N+](\[O-])c1ccc(C(=O)OCC)cc1 | 2.98 µM
68 | CC1=CC(C)(C)Nc2ccc(OC(=O)CN3C(=O)CCC3=O)cc21 | 12 µM
69 | CN(C)c1ccc(C=c2c3cc(O)ccc3n3c2cc(-c2ccccc2)[n+]3C)cc1 | 9.89 µM
70 | O=C(NCCCN1CCOCC1)c1sc2cc([N+](=O)[O-])ccc2c1Cl | 6.75 µM
71 | O=C(O)c1ccc(-n2c(-c3cc(-c4ccco4)[nH]n3)n[nH]c2=S)cc1 | inactive
72 | Oc1ccc(-c2cn3c(n2)SCC3)cc1O | 11.5 µM
73 | Cc1ccnc(-n2sc3ccccc3c2=O)n1 | 11.7 µM
74 | C[C@]12CC[C@@H]3c4ccc(O)c(O)c4CC[C@H]3[C@@H]1CC[C@@H]2O | 4.02 µM
75 | O=C1C=C(NCCc2cc(Br)c(O)c(Br)c2)C(=O)c2ncccc21 | 1.35 µM
76 | O=C1C(Cl)=C(NCCc2ccccc2)C(=O)c2ccccc21 | 3.32 µM
77 | COc1cc(-c2cc(OC)c(O)c(OC)c2)cc(OC)c1O | 8.29 µM
78 | Cn1c(=O)[nH]c(=O)c2c1nc([N+](=O)[O-])n2Cc1ccccc1 | 3.16 µM
79 | O=C1C=CC(=O)N1c1ccc(-c2nc3ccccc3o2)cc1 | 12.6 µM
80 | Cc1cc(C)c2c(=O)n(CC(=O)Nc3ccc(Cl)cc3)sc2n1 | 2.51 µM
81 | Oc1ccc(C2C[C@H]3CC[C@@H]2C3)cc1O (stereo partly drawn) | 5.71 µM
82 | Cc1cc(C)nc(/N=C(\N)Nc2ccccc2-c2ccccc2)n1 | 8.17 µM
83 | Nc1ccc(N(CCO)CCO)cc1 | 4.71 µM
